Test results taken from ChEMBL document CHEMBL1201862, “PubChem BioAssay data set” (2004).
Calls of active or inactive are those of the source.

How the values were obtained:
[1] = target: G-protein coupled receptor 183 (Homo sapiens, UniProt P32249); experiment: SAR confirmation of small molecule antagonists of the EBI2 receptor via a luminescent beta-arrestin assa.; assay type: functional
[2] = target: RNA-editing ligase 1, mitochondrial (Trypanosoma brucei brucei, UniProt P86926); experiment: TbREL1 ligase inhibitors, dose response, biochemical, fluorescence, Trypanosoma brucei (AID 1117295); assay type: functional
[3] = HepG2 cell cytotoxicity, dose response, cytotoxicity control, cherry-picked samples (AID 1159577); assay type: functional, cell-based
[4] = P. falciparum Dd2 growth inhibitors, dose response, SYBR Green, cherry-picked samples (AID 1159567); assay type: functional, cell-based
Streptococcus = experiment: Group A Streptococcus viability loss, dose response, counter-screen for streptokinase expression inhibitor project, luminescence, BacTiterGlo (AID 1915); assay type: functional, organism-based;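 note: potency for reduction of bacterial viability or growth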
INS1 = experiment: beta cell apoptosis inhibitors, cytokine rescue, dose response, luminescence, retest (AID 449756); assay type: functional, cell-based; settings: Rattus norvegicus, INS1;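 note: cell death triggered by IL-1 beta plus TNF-alpha plus IFN-gamma mixture; protective hits raise ATP signal compared with cytokine alone wells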
[5] = target: T1, Type-1 angiotensin II receptor (Homo sapiens, UniProt P30556); experiment: AT1 receptor antagonists, dose response, selectivity assay for APJ receptor antagonist project, cell-based, uHTS hits (AID 463214); assay type: functional;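 note: antagonist potency against angiotensin II stimulated AT1 response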
T1 sequence (P30556 whole entry): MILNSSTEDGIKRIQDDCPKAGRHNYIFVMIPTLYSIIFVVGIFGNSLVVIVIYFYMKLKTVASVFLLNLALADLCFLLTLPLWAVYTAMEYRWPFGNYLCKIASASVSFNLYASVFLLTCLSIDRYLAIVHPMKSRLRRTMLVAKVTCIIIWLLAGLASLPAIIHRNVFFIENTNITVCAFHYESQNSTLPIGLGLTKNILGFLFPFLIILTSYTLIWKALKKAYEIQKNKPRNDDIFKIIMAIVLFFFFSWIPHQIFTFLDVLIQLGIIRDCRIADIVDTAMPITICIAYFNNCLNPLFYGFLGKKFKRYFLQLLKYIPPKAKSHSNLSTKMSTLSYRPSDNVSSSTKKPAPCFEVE

[6] = cytotoxicity toward DRD oncogenic fibroblasts, dose response, cell-based, non-viral oncogenic, luminescence (AID 1934); assay type: functional; settings: Homo sapiens
Protein RecA = target: T2, Protein RecA (Mycobacterium tuberculosis, UniProt P9WHJ3); experiment: Fluorescence Cell-Free Homogeneous Dose Retest to Identify Inhibitors of RecA-Intein Splicing Activity. [Related pubchem assays (depositor defined):AID2097, AID2223, AID489010, AID492950]; assay type: functional
T2 sequence (P9WHJ3 whole entry): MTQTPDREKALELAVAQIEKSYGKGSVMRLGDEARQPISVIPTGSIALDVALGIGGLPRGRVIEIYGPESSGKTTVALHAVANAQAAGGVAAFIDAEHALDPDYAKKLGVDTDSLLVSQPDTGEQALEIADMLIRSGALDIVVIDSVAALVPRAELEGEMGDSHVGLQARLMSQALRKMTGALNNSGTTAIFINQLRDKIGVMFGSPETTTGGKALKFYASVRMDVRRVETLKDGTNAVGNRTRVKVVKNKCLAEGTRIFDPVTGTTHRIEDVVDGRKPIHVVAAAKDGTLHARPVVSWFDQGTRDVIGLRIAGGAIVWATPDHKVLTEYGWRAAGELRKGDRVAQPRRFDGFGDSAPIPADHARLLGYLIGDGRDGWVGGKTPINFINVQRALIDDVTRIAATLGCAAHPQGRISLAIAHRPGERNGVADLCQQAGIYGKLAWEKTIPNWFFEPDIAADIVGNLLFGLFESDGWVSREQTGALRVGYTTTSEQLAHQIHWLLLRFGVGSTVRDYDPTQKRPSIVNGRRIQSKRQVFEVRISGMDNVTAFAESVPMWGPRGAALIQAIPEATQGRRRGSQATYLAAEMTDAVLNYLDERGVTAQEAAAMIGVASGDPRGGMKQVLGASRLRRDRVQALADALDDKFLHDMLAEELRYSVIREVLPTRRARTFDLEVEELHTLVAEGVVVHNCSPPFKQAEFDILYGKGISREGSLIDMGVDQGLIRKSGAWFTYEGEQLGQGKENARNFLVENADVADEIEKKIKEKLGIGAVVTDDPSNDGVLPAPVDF

BJ [7] = experiment: cytotoxicity toward BJ-TERT fibroblasts, dose response, cell-based, RAS-independent, luminescence (AID 1933); assay type: functional; settings: Homo sapiens
[8] = cytotoxicity toward NIH3T3 fibroblasts, dose response, counter-screen, cell-based, ATP luminescence, mouse fibroblasts (AID 2010); assay type: functional;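 note: cells exposed to compound for about 90 hours before reading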
[9] = inhibitors of intracellular T. cruzi replication, confirmation, NIH3T3 host cells, beta-gal luminescence (AID 2044); assay type: functional, cell-based;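 note: intracellular parasites grown in NIH/3T3 mouse fibroblasts as host cells; luminescent beta-galactosidase reporter signal from transgenic T. cruzi replicating inside host cells; inhibitors lower the luminescence signal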
[10] = test system: Streptococcus sp. 'group A'; experiment: growth inhibition of control SK(-) GAS strain, dose response, counter-screen for streptokinase expression inhibitor project, luminescence, kanamycin, BacTiterGlo, confirmation (AID 1900); assay type: functional, organism-based
[11] = Artemis endonuclease inhibitor potency, dose response, biochemical, fluorescence intensity (AID 720701); assay type: functional;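 note: Artemis endonuclease enzyme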
BJ [12] = experiment: cells; assay type: functional, cell-based; settings: Homo sapiens
Beta-galactosidase = Beta-galactosidase (Escherichia coli, UniProt Q8VNN2); experiment: PubChem AID 485352; assay type: functional
Nonstructural protein 1 = Nonstructural protein 1 (Influenza A virus, UniProt Q194T2); assay type: functional, Influenza A virus (A/California/07/2009(H1N1))
BJ [13] = experiment: cytotoxicity toward BJ-TERT-LT-ST fibroblasts, dose response, cell-based, RAS-independent, luminescence (AID 1935); assay type: functional; settings: Homo sapiens;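 note: BJ fibroblasts immortalized with TERT plus LT and ST oncogenes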
[14] = target: T3, Replicative DNA helicase DnaB (Mycobacterium tuberculosis, UniProt P9WMR3); experiment: DnaB intein splicing inhibitors, dose response, biochemical, cell-free fluorescence (AID 449749); assay type: functional
T3 sequence (P9WMR3 whole entry): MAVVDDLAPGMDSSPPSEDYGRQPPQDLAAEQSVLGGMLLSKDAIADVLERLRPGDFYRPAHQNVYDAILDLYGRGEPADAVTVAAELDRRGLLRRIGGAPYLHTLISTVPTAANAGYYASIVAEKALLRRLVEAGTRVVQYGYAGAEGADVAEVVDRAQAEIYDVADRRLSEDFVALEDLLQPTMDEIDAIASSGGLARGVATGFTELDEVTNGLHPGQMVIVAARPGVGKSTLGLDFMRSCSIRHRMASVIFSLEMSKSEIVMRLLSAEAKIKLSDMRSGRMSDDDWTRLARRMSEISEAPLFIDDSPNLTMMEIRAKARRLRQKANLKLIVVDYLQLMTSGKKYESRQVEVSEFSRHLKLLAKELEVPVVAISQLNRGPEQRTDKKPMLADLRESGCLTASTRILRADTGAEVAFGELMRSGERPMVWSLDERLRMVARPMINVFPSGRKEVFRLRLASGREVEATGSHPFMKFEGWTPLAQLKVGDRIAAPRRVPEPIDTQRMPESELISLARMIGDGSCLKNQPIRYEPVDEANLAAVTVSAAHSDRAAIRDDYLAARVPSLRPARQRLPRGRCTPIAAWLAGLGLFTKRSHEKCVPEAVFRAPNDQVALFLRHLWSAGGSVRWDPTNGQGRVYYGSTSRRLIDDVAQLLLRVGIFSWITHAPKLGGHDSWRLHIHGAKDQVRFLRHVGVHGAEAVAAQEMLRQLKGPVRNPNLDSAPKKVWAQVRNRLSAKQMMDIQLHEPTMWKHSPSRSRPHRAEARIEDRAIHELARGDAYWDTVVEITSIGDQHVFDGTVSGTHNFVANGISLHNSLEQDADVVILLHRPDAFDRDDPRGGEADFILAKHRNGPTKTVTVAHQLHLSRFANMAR

[15] = target: T4, DNA repair protein RAD52 homolog (Homo sapiens, UniProt P43351); assay type: functional, biochemical
T4 sequence (P43351 whole entry): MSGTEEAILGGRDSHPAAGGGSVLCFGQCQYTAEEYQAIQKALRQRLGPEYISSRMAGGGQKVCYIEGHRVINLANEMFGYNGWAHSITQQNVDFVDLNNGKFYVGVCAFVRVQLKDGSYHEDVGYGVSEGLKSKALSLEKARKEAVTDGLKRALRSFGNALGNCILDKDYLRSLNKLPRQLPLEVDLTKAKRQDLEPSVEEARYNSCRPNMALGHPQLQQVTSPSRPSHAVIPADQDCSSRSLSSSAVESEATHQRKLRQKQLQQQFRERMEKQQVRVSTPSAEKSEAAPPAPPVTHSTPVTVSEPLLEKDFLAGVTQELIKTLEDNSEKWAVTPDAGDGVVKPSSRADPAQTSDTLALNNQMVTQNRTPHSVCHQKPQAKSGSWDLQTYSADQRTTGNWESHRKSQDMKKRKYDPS

[16] = HeLa cell cytotoxicity, dose response, cytotoxicity control for MgcRacGAP inhibitor project (AID 624300); assay type: functional
[17] = target: Glutathione-S-transferase (Schistosoma japonicum, UniProt Q26513); experiment: biotin-GST/anti-GST TR-FRET signal inhibitors, dose response, artefact control for Vif-APOBEC3G degradation inhibitor project, biochemical (AID 1117362); assay type: functional
[18] = THP-1 cell cytotoxicity, dose response, cytotoxicity control for Vif-APOBEC3G degradation inhibitor project, THP-1 cells (AID 1117359); assay type: functional; settings: Human immunodeficiency virus 1, THP-1
[19] = target: T5, Small ubiquitin-related modifier 1 (Homo sapiens, UniProt P63165); experiment: inhibitors of SUMO1 peptide binding, dose response, biochemical, fluorescence polarization, uHTS hits (AID 624382); assay type: functional; settings: read-out: IC50_Mean
[20] = target: T5, Small ubiquitin-related modifier 1; experiment: inhibitors of SUMO1 partner interactions, dose response, biochemical, FRET (AID 624383); assay type: functional; settings: read-out: IC50_Mean
[21] = target: Glucose-6-phosphate 1-dehydrogenase (Homo sapiens, UniProt P11413); experiment: human G6PD enzyme inhibitors, dose response, selectivity assay for P. falciparum G6PD inhibitor project, biochemical, fluorescence (AID 504792); assay type: functional
[22] = target: T6, Rac GTPase-activating protein 1 (Homo sapiens, UniProt Q9H0H5); experiment: MgcRacGAP GTPase-activating activity inhibitors, confirmation, biochemical, ADP Hunter fluorescence, primary and confirmatory (AID 624330); assay type: functional
T6 sequence (Q9H0H5 whole entry): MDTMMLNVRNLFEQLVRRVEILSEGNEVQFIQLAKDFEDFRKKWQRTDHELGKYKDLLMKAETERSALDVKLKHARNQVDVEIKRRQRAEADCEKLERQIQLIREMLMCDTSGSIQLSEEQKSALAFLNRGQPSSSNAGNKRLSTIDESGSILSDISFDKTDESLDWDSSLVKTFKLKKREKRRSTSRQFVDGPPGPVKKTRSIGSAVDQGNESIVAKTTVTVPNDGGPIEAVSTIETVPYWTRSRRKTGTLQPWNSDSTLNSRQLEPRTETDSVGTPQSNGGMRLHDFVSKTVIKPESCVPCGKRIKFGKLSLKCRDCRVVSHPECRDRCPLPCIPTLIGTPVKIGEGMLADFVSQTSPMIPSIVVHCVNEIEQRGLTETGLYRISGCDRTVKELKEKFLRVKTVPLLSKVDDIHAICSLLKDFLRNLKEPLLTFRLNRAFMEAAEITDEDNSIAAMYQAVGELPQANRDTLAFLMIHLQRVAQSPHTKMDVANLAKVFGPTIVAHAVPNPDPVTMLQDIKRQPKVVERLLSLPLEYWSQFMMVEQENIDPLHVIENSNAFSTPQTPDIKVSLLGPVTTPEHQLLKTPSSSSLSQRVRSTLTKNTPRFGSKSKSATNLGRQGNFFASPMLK

T5 sequence (P63165 whole entry): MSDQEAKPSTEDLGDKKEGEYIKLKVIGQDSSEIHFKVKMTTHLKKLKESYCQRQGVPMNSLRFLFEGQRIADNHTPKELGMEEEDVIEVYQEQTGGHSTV
Chain of G-protein coupled receptor 183 (P32249 whole entry): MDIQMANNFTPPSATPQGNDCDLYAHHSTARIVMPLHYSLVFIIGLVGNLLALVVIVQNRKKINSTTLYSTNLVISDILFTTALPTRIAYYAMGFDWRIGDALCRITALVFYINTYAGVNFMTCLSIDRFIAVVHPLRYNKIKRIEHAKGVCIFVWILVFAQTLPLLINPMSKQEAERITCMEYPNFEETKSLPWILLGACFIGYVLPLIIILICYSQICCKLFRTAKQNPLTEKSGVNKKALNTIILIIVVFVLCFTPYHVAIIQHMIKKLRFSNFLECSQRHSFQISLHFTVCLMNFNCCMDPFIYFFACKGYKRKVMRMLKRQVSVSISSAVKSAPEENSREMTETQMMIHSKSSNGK
Chain of Glucose-6-phosphate 1-dehydrogenase (P11413 whole entry): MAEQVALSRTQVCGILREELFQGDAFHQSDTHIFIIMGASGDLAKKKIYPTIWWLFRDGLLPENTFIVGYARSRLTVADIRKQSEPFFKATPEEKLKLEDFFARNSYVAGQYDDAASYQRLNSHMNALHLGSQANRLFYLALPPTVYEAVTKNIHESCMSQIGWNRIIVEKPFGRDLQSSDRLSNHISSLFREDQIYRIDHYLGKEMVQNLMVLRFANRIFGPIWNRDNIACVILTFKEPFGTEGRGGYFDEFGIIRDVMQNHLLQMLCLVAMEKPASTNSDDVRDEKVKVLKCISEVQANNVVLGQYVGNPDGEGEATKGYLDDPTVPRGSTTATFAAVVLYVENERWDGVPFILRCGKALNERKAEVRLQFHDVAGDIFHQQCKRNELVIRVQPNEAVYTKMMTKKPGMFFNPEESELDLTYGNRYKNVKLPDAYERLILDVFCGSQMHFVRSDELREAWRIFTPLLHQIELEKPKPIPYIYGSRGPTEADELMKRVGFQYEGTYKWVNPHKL
Chain of RNA-editing ligase 1, mitochondrial (P86926 whole entry): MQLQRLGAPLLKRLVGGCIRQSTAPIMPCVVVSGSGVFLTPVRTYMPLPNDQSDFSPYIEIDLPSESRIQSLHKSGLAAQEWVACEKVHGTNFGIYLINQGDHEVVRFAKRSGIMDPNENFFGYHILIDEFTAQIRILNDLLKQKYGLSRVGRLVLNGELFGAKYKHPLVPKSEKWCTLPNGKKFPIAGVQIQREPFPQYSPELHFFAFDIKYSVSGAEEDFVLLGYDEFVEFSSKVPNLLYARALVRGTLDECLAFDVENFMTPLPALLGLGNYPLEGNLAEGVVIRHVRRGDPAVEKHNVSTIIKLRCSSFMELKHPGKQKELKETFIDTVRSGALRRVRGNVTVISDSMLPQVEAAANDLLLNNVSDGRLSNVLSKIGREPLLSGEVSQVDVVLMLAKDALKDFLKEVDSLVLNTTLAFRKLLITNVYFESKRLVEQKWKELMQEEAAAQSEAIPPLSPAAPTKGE
Chain of Beta-galactosidase (Q8VNN2 whole entry): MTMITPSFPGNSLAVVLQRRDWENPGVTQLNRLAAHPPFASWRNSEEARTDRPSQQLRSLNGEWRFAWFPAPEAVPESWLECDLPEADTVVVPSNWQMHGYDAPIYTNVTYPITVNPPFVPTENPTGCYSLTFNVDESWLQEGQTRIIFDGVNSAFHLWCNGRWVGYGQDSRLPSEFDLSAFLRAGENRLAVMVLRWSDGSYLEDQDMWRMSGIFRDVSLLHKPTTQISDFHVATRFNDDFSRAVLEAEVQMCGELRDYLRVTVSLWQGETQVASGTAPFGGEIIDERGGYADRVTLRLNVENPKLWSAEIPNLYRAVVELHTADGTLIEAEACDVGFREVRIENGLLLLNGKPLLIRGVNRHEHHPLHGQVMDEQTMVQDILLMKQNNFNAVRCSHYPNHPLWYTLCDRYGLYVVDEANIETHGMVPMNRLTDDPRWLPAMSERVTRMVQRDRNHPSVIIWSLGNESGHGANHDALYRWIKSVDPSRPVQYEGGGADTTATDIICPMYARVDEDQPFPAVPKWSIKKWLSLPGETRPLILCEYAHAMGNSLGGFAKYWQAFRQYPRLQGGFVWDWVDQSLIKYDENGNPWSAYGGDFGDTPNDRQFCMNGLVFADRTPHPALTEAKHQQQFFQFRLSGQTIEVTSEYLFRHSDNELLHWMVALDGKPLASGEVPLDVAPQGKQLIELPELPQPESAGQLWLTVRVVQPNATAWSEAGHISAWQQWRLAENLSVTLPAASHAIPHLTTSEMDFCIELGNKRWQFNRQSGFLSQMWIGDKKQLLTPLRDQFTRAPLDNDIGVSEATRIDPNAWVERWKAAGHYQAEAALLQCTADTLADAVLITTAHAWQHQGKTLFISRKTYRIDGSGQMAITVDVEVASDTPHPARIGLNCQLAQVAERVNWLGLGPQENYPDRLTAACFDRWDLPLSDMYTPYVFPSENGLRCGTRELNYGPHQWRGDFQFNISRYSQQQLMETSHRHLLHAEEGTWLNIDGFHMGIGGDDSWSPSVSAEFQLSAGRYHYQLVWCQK
Chain of Glutathione-S-transferase (Q26513 whole entry): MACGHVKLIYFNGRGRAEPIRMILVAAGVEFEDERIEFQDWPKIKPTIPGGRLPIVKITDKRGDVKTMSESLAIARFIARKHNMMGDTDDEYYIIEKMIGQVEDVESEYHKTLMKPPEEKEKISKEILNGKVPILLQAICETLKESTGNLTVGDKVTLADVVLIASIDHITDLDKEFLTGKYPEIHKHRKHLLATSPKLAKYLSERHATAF
Chain of Nonstructural protein 1 (Q194T2 whole entry): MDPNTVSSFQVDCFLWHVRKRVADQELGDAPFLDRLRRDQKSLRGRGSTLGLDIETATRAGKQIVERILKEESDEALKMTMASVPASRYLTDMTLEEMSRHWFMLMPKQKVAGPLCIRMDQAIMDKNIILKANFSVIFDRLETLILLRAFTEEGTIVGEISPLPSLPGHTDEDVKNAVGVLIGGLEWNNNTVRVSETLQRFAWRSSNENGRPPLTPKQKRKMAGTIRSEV

Structure (SMILES): Cc1cc(C)cc(CN2CCN(C(=O)/C=C/c3ccc(Br)cc3)CC2)c1
- IC50 [1]: 0.0064 µM (active)

Structure (SMILES): O=C(c1ccc(Br)cc1)N1CCN(C(=O)c2ccccc2Cl)CC1
- IC50 [1]: > 1 µM (inactive)

Structure (SMILES): Cc1cc(O)c2c(c1)C(=O)[C@@]13C(=C(O)[C@H]4C(O)[C@@H]1[C@H]1C(O)[C@@H]3C(O)=C3C(=O)c5c(O)cc(C)cc5C(=O)[C@@]314)C2=O (stereo not given in full)
- IC50 [2]: 4.1 µM (active)

Structure (SMILES): CO[C@@H]1CN(C)C(=O)c2ccc(NC(=O)Nc3cccc(Cl)c3)cc2OC[C@@H](C)NC[C@H]1C
- AC50 [3]: 30.3 µM (active)
- AC50 [4]: 5.07 µM (active)

Structure (SMILES): c1ccc(-c2nc(N3CCCCCC3)c3ccccc3n2)nc1
- EC50 (Streptococcus): 1.19 µM (active)
- AC50 (INS1): 1.8 µM (active)
- IC50 [5]: > 40 µM (not active)
- EC50 [6]: 21 µM (active)
- EC50 (Protein RecA): > 380 µM (inconclusive)
- EC50 (BJ [7]): 9.59 µM (active)
- EC50 [8]: 2.24 µM (active)
- EC50 [9]: 0.845 µM (active)
- EC50 [10]: 0.947 µM (active)
- IC50 [11]: 4.71 µM (active)
- EC50 (BJ [12]): 25.7 µM (active)
- EC50 (Beta-galactosidase): > 40 µM (inactive)
- IC50 (Nonstructural protein 1): 23 µM (active)
- EC50 (BJ [13]): 50.7 µM (inconclusive)
- AC50 [14]: 36.2 µM (active)

Structure (SMILES): N#C[C@H]1[C@@H](c2ccc(C#CC3CCCC3)cc2)[C@@H](CO)N1S(=O)(=O)c1ccccc1
- AC50 [3]: 24.8 µM (active)
- AC50 [4]: 3.62 µM (active)

Structure (SMILES): Cc1cc(C)c2c(=N)c3ccccc3n(CCCCCCCCn3c4ccccc4c(=N)c4c(C)cc(C)nc43)c2n1
- AC50 [15]: < 0.364 µM (active)
- CC50 [16]: 20.4 µM (active)
- IC50 [17]: 2.4 µM (active)
- CC50 [18]: 5.65 µM (active)
- IC50 [19]: > 66.6 µM (inactive)
- IC50 [20]: 4.83 µM (active)
- IC50 [21]: 29 µM (inactive)
- IC50 [22]: 26.3 µM (active)
